Results on 1 compound are retold here after article PMC8007111, “Novel Potent Muscarinic Receptor Antagonists: Investigation on the Nature of Lipophilic Substituents in the 5- and/or 6-Positions of the 1,4-Dioxane Nucleus” (Journal of Medicinal Chemistry, 2020).

In one experiment the target is T1, hM4 mAChR (Homo sapiens, UniProt P08173).
T1 construct: expressed in transfected cells; host or cells: CHO-K1 (membrane preparation)
T1 sequence (P08173 1-479): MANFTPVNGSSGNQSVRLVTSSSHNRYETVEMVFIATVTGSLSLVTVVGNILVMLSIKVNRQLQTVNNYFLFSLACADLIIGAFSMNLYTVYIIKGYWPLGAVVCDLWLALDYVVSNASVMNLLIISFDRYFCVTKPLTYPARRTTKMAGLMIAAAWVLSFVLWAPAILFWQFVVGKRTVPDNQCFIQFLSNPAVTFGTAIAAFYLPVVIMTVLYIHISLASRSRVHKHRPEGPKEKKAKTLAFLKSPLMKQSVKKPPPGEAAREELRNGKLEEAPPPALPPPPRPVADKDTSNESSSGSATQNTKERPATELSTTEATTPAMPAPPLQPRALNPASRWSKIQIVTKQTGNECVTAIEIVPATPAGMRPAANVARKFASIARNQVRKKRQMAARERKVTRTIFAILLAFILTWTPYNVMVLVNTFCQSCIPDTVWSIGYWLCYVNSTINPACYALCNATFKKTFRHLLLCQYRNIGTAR
Briefly: [3H]NMS inhibition radioligand binding, hM4 in CHO-K1 cell membranes. The settings on record: [3H]NMS, CHO-K1 cell membranes; mean ± S.E.M.

Experiment [1] concerns MSCs from mouse bone marrow. Briefly: Carbachol-induced MSC viability (MTS assay). The settings on record: pre-incubation 1 h, then carbachol 10^–10 M for 24 h. The class given is cell-based. As to the method: It is well established that bone marrow MSC behavior is influenced by a variety of signaling systems. In context, cholinergic intramural stimuli and, in particular, muscarinic signals orchestrate MSCs viability and commitment.[11],[12] Considering also the pluripotent MSC nature and their contribution to bone, blood, and systemic homeostasis,[53] viability studies on MSCs were performed to determine the functional profile of 3b, the most interesting compound in this series. […] Successively, the efficacy of 3b in contrasting cell viability induced by the well-known mAChR agonist carbachol was evaluated. […] Further research on the intracellular mechanistic outcomes of 3b on MSCs remains mandatory.
The in vitro studies were performed by using bone marrow MSCs as a model. Male BALB/c mice (Harlan Italy SrL, Milano, Italy) (8 weeks old; body weight ∼24.5 g; n = 4) were kept in a laminar-flow cage in a standardized environmental condition. Food (Harlan, Italy), and water was supplied ad libitum. Mice were sacrificed by CO2 narcosis and cervical dislocation in accordance with the recommendations of the Italian Ethical Committee and under the supervision of authorized investigators. Long bones (femurs and tibiae) were dissected and cleaned from skin, muscle, and connective tissues as much as possible. Bones were placed in a culture dish containing sterile PBS. Then, the bone cavity was flushed in DMEM with a syringe in order to collect the bone marrow cells into a 50 mL sterile tube. […] After 2 weeks of initiating culture, cells were washed with PBS, detached by trypsinization, counted, and plated at the density of 5,000 cells/well in 96 culture plates (Costar Corp., Milano, Italy) in DMEM containing 10% HIFCS, penicillin, and streptomycin.
MSCs were treated with compound 3b (from 10^–4 to 10^–10 M) for 24 h. […] At the end of each procedure, the MSCs viability was measured by MTS assay. […] The quantity of the formazan product was directly proportional to the number of living cells in culture. The colored formazan was measured by reading the absorbance at 490 nm using a […] plate reader.
Background: Tetrazolium dyes change colour on reduction, which living cells bring about.

`C[N+](C)(C)C[C@@H]1COC[C@](c2ccccc2)(C2CCCCC2)O1.[I-]` (relative stereo) [3b, 1-((2R*,6R*)-6-Cyclohexyl-6-phenyl-1,4-dioxan-2-yl)-N,N,N-trimethylmethanaminium Iodide]: at hM4 mAChR, the “pKi hM4” value is recorded as 9.03 ± 0.16. Moreover, the “effect on carbachol-induced MSC viability” value in experiment [1] is “able to contrast the increase of carbachol-induced MSC viability”.
